Assay results published in patent US8952024B2, “Herbicidal pyrimidone derivatives” (E I du Pont de Nemours and Company, priority 2009, dated 2015).

What was measured:
Assay type in all cases: in vivo
[1] = system: giant foxtail (Setaria faberii); experiment: Test A pre-/postemergence plant response; conditions: approx. ten days; for Foxtail, Giant plant response rating: 125 g ai/ha; for Plant response rating, Foxtail, Giant: 500 g ai/ha
Method in brief: (§1)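 Greenhouse trial, ~10 days. Soil (loam/sand) sprayed preemergence after seeding; emerged plants (1–2 leaf, 2–10 cm) sprayed postemergence in parallel. Response = visual injury vs untreated control, 0–100.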

[2] = system: barnyardgrass (Echinochloa crus-galli); experiment: Test A pre-/postemergence plant response
Method in brief: as §1

[3] = system: corn (Zea mays); experiment: Test A pre-/postemergence plant response
Method in brief: as §1

[4] = system: wheat (Triticum aestivum); experiment: Test A pre-/postemergence plant response
Method in brief: as §1

[5] = system: velvetleaf (Abutilon theophrasti); experiment: Test A pre-/postemergence plant response
Method in brief: as §1

[6] = system: large crabgrass (Digitaria sanguinalis); experiment: Test A pre-/postemergence plant response
Method in brief: as §1

[7] = system: morningglory (Ipomoea spp.); experiment: Test A pre-/postemergence plant response
Method in brief: as §1

[8] = system: pigweed (Amaranthus retroflexus); experiment: Test A pre-/postemergence plant response
Method in brief: as §1

[9] = system: windgrass (Apera spica-venti); experiment: Test B postemergence plant response
Method in brief: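 Visual ratings from 0 (no effect) to 100 (complete control), made against controls 13–15 days after treatment, kept in a greenhouse. Compounds were applied postemergence to potted plants at the 1- to 4-leaf stage (2–18 cm).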

[10] = system: barnyardgrass (Echinochloa crus-galli); experiment: Test B flooded paddy test; conditions: for Plant response rating, Flood, Barnyardgrass: 250 g ai/ha, flooded paddy test, visual rating on 0 to 100 scale (0 no effect, 100 complete control) after 13 to 15 days; for Plant response rating, Barnyardgrass: Flood (flooded paddy test), 13 to 15 days; for Barnyardgrass plant response rating: Flood, 31 g ai/ha, scale 0 to 100 (0 no effect, 100 complete control)
Method in brief: (§2)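 Each compound is added to standing floodwater (3 cm above soil, maintained) in pots of 2-leaf-stage plants; greenhouse exposure lasts 13–15 d before visual comparison with controls on a 0–100 control scale.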

[11] = system: umbrella sedge (Cyperus difformis); experiment: Test B flooded paddy test; conditions: for Plant response rating, Flood, Sedge, Umbrella: 250 g ai/ha, flooded paddy test, visual rating on 0 to 100 scale (0 no effect, 100 complete control) after 13 to 15 days; for Plant response rating, Sedge, Umbrella: Flood (flooded paddy test), 13 to 15 days; for Sedge, Umbrella plant response rating: Flood, 31 g ai/ha, scale 0 to 100 (0 no effect, 100 complete control)
Method in brief: as §2

[12] = system: ducksalad (Heteranthera limosa); experiment: Test B flooded paddy test; conditions: for Plant response rating, Flood, Ducksalad: 250 g ai/ha, flooded paddy test, visual rating on 0 to 100 scale (0 no effect, 100 complete control) after 13 to 15 days; for Plant response rating, Ducksalad: Flood (flooded paddy test), 13 to 15 days; for Ducksalad plant response rating: Flood, 31 g ai/ha, scale 0 to 100 (0 no effect, 100 complete control)
Method in brief: as §2

[13] = system: rice (Oryza sativa); experiment: Test B flooded paddy test; conditions: for Plant response rating, Flood, Rice: 250 g ai/ha, flooded paddy test, visual rating on 0 to 100 scale (0 no effect, 100 complete control) after 13 to 15 days; for Plant response rating, Rice: Flood (flooded paddy test), 13 to 15 days; for Rice plant response rating: Flood, 31 g ai/ha, scale 0 to 100 (0 no effect, 100 complete control)
Method in brief: as §2

[14] = Postemergence, visual injury, 0 to 100 scale (0 no effect, 100 complete control)
[15] = Postemergence, 0 to 100 scale, 0 = no effect, 100 = complete control
[16] = Preemergence, visual injury, 0 to 100 scale (0 no effect, 100 complete control)
[17] = Postemergence, 125 g ai/ha, visual injury, 0 to 100 scale (0 no effect, 100 complete control), approx. ten days
[18] = Postemergence, 500 g ai/ha, 0 to 100 scale, 0 = no effect, 100 = complete control, approx. ten days
[19] = Preemergence, 125 g ai/ha, 0 to 100 scale, 0 = no effect, 100 = complete control
[20] = Preemergence, 500 g ai/ha, visual injury, 0 to 100 scale (0 no effect, 100 complete control), approx. ten days
[21] = 31 g ai/ha, postemergence, scale 0 to 100, 0 is no effect, 100 is complete control
[22] = Postemergence, 125 g ai/ha, visual rating after 13 to 15 days, scale 0 (no effect) to 100 (complete control)
[23] = Postemergence, 250 g ai/ha, scale 0 to 100 (0 no effect, 100 complete control)
[24] = 62 g ai/ha, scale of 0 to 100 where 0 is no effect and 100 is complete control
[25] = 125 g ai/ha, scale 0 to 100, 0 is no effect, 100 is complete control

## O=C1CCCC(O)=C1C(=O)c1cnc(-c2cccs2)n(-c2ccccc2)c1=O [Compound 66]
[1]; [14]
  Foxtail, Giant plant response rating: 70
[1]; [15]
  Plant response rating, Foxtail, Giant: 80
[1]; [16]
  Plant response rating, Foxtail, Giant: 80
[2]; [17]
  Barnyardgrass plant response rating: 80
[2]; [18]
  Plant response rating, Barnyardgrass: 90
[2]; [19]
  Plant response rating, Barnyardgrass: 20
[2]; [20]
  Plant response rating, Barnyardgrass: 70
[3]; [18]
  Plant response rating, Corn: 60
[3]; [19]
  Plant response rating, Corn: 0
[3]; [20]
  Plant response rating, Corn: 0
[4]; [17]
  Wheat plant response rating: 0
[4]; [18]
  Plant response rating, Wheat: 0
[4]; [19]
  Plant response rating, Wheat: 0
[4]; [20]
  Plant response rating, Wheat: 0
[5]; [17]
  Velvetleaf plant response rating: 100
[5]; [18]
  Plant response rating, Velvetleaf: 100
[5]; [19]
  Plant response rating, Velvetleaf: 70
[5]; [20]
  Plant response rating, Velvetleaf: 100
[6]; [17]
  Crabgrass, Large plant response rating: 70
[6]; [18]
  Plant response rating, Crabgrass, Large: 90
[6]; [19]
  Plant response rating, Crabgrass, Large: 90
[6]; [20]
  Plant response rating, Crabgrass, Large: 100
[7]; [17]
  Morningglory plant response rating: 90
[7]; [18]
  Plant response rating, Morningglory: 90
[7]; [19]
  Plant response rating, Morningglory: 0
[7]; [20]
  Plant response rating, Morningglory: 30
[8]; [17]
  Pigweed plant response rating: 100
[8]; [18]
  Plant response rating, Pigweed: 100
[8]; [19]
  Plant response rating, Pigweed: 90
[8]; [20]
  Plant response rating, Pigweed: 100
[9]; [21]
  Plant response rating, Windgrass: 60
[9]; Postemergence, 62 g ai/ha, scale 0 (no effect) to 100 (complete control), 13 to 15 days
  Plant response rating, Windgrass: 60
[9]; [22]
  Plant response rating, Windgrass: 70
[9]; [23]
  Plant response rating, Windgrass: 80
[10]
  Plant response rating, Flood, Barnyardgrass: 45
  Barnyardgrass plant response rating: 0
[10]; [24]
  Plant response rating, Barnyardgrass: 0
[10]; [25]
  Plant response rating, Barnyardgrass: 0
[11]
  Plant response rating, Flood, Sedge, Umbrella: 50
  Sedge, Umbrella plant response rating: 0
[11]; [24]
  Plant response rating, Sedge, Umbrella: 0
[11]; [25]
  Plant response rating, Sedge, Umbrella: 30
[12]
  Plant response rating, Flood, Ducksalad: 20
  Ducksalad plant response rating: 0
[12]; [24]
  Plant response rating, Ducksalad: 0
[12]; [25]
  Plant response rating, Ducksalad: 0
[13]
  Plant response rating, Flood, Rice: 20
  Rice plant response rating: 0
[13]; [24]
  Plant response rating, Rice: 0
[13]; [25]
  Plant response rating, Rice: 0

## CC(C)Cc1ncc(C(=O)C2=C(O)CCCC2=O)c(=O)n1-c1ccccc1 [Compound 68]
[1]; [14]
  Foxtail, Giant plant response rating: 50
[1]; [15]
  Plant response rating, Foxtail, Giant: 70
[1]; [16]
  Plant response rating, Foxtail, Giant: 60
[2]; [17]
  Barnyardgrass plant response rating: 80
[2]; [18]
  Plant response rating, Barnyardgrass: 90
[2]; [19]
  Plant response rating, Barnyardgrass: 0
[2]; [20]
  Plant response rating, Barnyardgrass: 50
[3]; [17]
  Corn plant response rating: 0
[3]; [18]
  Plant response rating, Corn: 10
[3]; [19]
  Plant response rating, Corn: 0
[3]; [20]
  Plant response rating, Corn: 0
[4]; [17]
  Wheat plant response rating: 0
[4]; [18]
  Plant response rating, Wheat: 0
[4]; [19]
  Plant response rating, Wheat: 0
[4]; [20]
  Plant response rating, Wheat: 0
[5]; [17]
  Velvetleaf plant response rating: 100
[5]; [18]
  Plant response rating, Velvetleaf: 100
[5]; [19]
  Plant response rating, Velvetleaf: 70
[5]; [20]
  Plant response rating, Velvetleaf: 100
[6]; [17]
  Crabgrass, Large plant response rating: 80
[6]; [18]
  Plant response rating, Crabgrass, Large: 100
[6]; [19]
  Plant response rating, Crabgrass, Large: 70
[6]; [20]
  Plant response rating, Crabgrass, Large: 100
[7]; [17]
  Morningglory plant response rating: 90
[7]; [18]
  Plant response rating, Morningglory: 90
[7]; [19]
  Plant response rating, Morningglory: 20
[7]; [20]
  Plant response rating, Morningglory: 50
[8]; [17]
  Pigweed plant response rating: 100
[8]; [18]
  Plant response rating, Pigweed: 100
[8]; [19]
  Plant response rating, Pigweed: 90
[8]; [20]
  Plant response rating, Pigweed: 100
[9]; [21]
  Plant response rating, Windgrass: 40
[9]; 62 g ai/ha, postemergence, 0 is no effect, 100 is complete control, 13 to 15 days
  Windgrass plant response rating (0 to 100 scale): 50
[9]; [22]
  Plant response rating, Windgrass: 65
[9]; [23]
  Plant response rating, Windgrass: 85
[10]
  Plant response rating, Flood, Barnyardgrass: 20
  Barnyardgrass plant response rating: 0
[10]; [24]
  Plant response rating, Barnyardgrass: 0
[10]; [25]
  Plant response rating, Barnyardgrass: 0
[11]
  Plant response rating, Flood, Sedge, Umbrella: 0
  Sedge, Umbrella plant response rating: 0
[11]; [24]
  Plant response rating, Sedge, Umbrella: 0
[11]; [25]
  Plant response rating, Sedge, Umbrella: 0
[12]
  Plant response rating, Flood, Ducksalad: 40
  Ducksalad plant response rating: 0
[12]; [24]
  Plant response rating, Ducksalad: 0
[12]; [25]
  Plant response rating, Ducksalad: 30
[13]
  Plant response rating, Flood, Rice: 30
  Rice plant response rating: 0
[13]; [24]
  Plant response rating, Rice: 15
[13]; [25]
  Plant response rating, Rice: 20
